Measurements: US20080318954A1, “Compounds” (Cyclacel Limited, priority 2004, published 2008)

Assays:
GSK-3β = target: T1, GSK-3β (Oryctolagus cuniculus, UniProt G1T8E2); experiment: GSK-3β kinase assay; assay type: biochemical, rabbit
T1 construct: isolated from a strain of E. coli that carries a clone expressing GSK-3β derived from a rabbit skeletal muscle cDNA library [34]
Protocol: GSK-3 was obtained from New England Biolabs (UK) Ltd., Hitchin, Herts. The recombinant enzyme was isolated from a strain of E. coli that carries a clone expressing GSK-3β derived from a rabbit skeletal muscle cDNA library. Inhibition of GSK-3 function was assessed by measurement of phosphorylation of CREB phosphopeptide KRREILSRRPpSYR in the presence of test compounds. Using a 96-well assay format, GSK3 (7.5 U) was incubated for 30 min at 30° C. in a total volume of 25 μL in 20 mM MOPS pH 7.2, 25 mM β-glycerophosphate, 5 mM EGTA, 1 mM DTT, 1 mM […], 40 μM CREB peptide, 15 mM MgCl2 and 100 μM ATP (containing 0.25 μCi [γ-^32P]-ATP) in the presence of varying concentrations of test compound. The samples were transferred to 96-well p81 filter plates (Whatman Polyfiltronics, Kent, UK), and the plates were washed 4 times with 200 μL/well of 75 mM aq orthophosphoric acid. Scintillation liquid (50 μL) was added to each well, and incorporated radioactivity for each sample was determined using a scintillation counter (TopCount, Packard Instruments, Pangbourne, Berks, UK).

CDK9/cyclin T1 = target: T2, CDK9/cyclin T1 (Homo sapiens, UniProt P50750); experiment: CDK9/cyclin T1 inhibition constant; assay type: biochemical
T2 construct: His6 (N); made in house; host or cells: Sf9 insect cells (baculovirus)
Protocol: CDK4/cyclin D1, CDK1/cyclin B, CDK2/cyclin E, CDK2/cyclin A, CDK9/cyclin T1 and CDK7/cyclin H, all with a His6 tag on the N-terminus, were expressed in Sf9 insect cells using an appropriate baculovirus construct. Sf9 culture (1.6×10^6 cells/mL) was infected (MOI of 3) for two days. The cells were harvested by low speed centrifugation and the protein was purified from the insect cell pellet by metal affinity chromatography. In short: the insect cell pellet was lysed in Buffer A (10 mM Tris-HCl pH 8.0, 150 mM NaCl, 0.02% NP-40, 5 mM β-mercaptoethanol, 20 mM NaF, 1 mM Na3VO4, and Sigma Protease Inhibitor Cocktail) by sonication. The soluble fraction was cleared by centrifugation and loaded onto Ni-NTA-Agarose (Qiagen). Non-bound protein was washed off with 300 mM NaCl, 5-15 mM imidazole in buffer A and the bound protein was eluted with buffer A supplemented with 250 mM imidazole. The purified proteins were extensively dialyzed against storage buffer (20 mM HEPES pH 7.4, 50 mM NaCl, 2 mM DTT, 1 mM EDTA, 1 mM EGTA, 0.02% NP-40, 10% v/v glycerol) and stored at −70° C.
Intrinsic inhibition constants (Ki) for example compound XIV against a number of Ser/Thr kinases were determined and are summarized in Table 3.

[1] = system: β-catenin-LEF/TCF transcriptional activity in HEK293 cells; experiment: β-Catenin-LEF/TCF regulated reporter gene assay; assay type: cell-based, human; conditions: up to 10 μM
Excerpt: Furthermore, the effect of compound XIV on the β-catenin-dependent transcriptional activity, as measured in a luciferase based reporter gene assay, was studied.
HEK293 cells were transfected with either β-catenin-LEF/TCF-sensitive or β-catenin-LEF/TCF-insensitive reporter vector (Upstate Biotechnology, Inc.) using Lipofectamine Plus reagent (GibcoBRL) according to the manufacturer's instructions. The next day, cells were trypsinized, washed into serum-free medium, counted and seeded at 40,000 cells per well in a 96-well plate. Subsequent to cell attachment, LiCl or GSK-3 inhibitor compound were added to the medium to the required concentrations. Control cells were DMSO vehicle treated. 16 h after inhibitor addition, cells were analyzed for luciferase activity using the Steady-Glo Luciferase assay system (Promega) according to the manufacturer's instructions.

SAPK2a/p38 = target: T3, SAPK2a/p38 (Homo sapiens, UniProt Q16539); experiment: Protein kinase panel selectivity screen, SAPK2a/p38; assay type: biochemical; conditions: 1 μM compound; [ATP] 50 μM
T3 construct: Dundee University (panel)
Protocol: (§1) The names of the 29 kinases comprising the selectivity screen, as well as the ATP concentrations used in each kinase case, are given in Table 5. The kinase assays were carried out as described previously.
(§2) Compound XIV at a concentration of 1 μM was screened in the 29-kinase panel (Dundee University) and the results are shown bellow in Table 6.

SAPK4/p38d = target: T4, SAPK4/p38d (Homo sapiens, UniProt O15264); experiment: Protein kinase panel selectivity screen, SAPK4/p38d; assay type: biochemical; conditions: 1 μM compound
T4 construct: Dundee University (panel)
Protocol: as §1, §2

MAPKAP-K1a = target: T5, MAPKAP-K1a (Homo sapiens, UniProt Q15418); experiment: Protein kinase panel selectivity screen, MAPKAP-K1a; assay type: biochemical; conditions: 1 μM compound; [ATP] 50 μM
T5 construct: Dundee University (panel)
Protocol: as §1, §2

MAPKAP-K2 = target: T6, MAPKAP-K2 (Homo sapiens, UniProt P49137); experiment: Protein kinase panel selectivity screen, MAPKAP-K2; assay type: biochemical; conditions: 1 μM compound; [ATP] 20 μM
T6 construct: Dundee University (panel)
Protocol: as §1, §2

MSK1 = target: T7, MSK1 (Homo sapiens, UniProt O75582); experiment: Protein kinase panel selectivity screen, MSK1; assay type: biochemical; conditions: 1 μM compound; [ATP] 20 μM
T7 construct: Dundee University (panel)
Protocol: as §1, §2

PRAK = target: T8, PRAK (Homo sapiens, UniProt Q8IW41); experiment: Protein kinase panel selectivity screen, PRAK; assay type: biochemical; conditions: 1 μM compound; [ATP] 20 μM
T8 construct: Dundee University (panel)
Protocol: as §1, §2

PKCa = target: T9, PKCa (Homo sapiens, UniProt P17252); experiment: Protein kinase panel selectivity screen, PKCa; assay type: biochemical; conditions: 1 μM compound; [ATP] 20 μM
T9 construct: Dundee University (panel)
Protocol: as §1, §2

PKBdelta PH = target: T10, PKBdelta PH (Homo sapiens, UniProt P31749, S473D); experiment: Protein kinase panel selectivity screen, PKBdelta PH; assay type: biochemical; conditions: 1 μM compound; [ATP] 5 μM
T10 construct: Dundee University (panel)
Protocol: as §1, §2

GSK3b = target: T11, GSK3b (Homo sapiens, UniProt P49841); experiment: Protein kinase panel selectivity screen, GSK3b; assay type: biochemical; conditions: 1 μM compound
T11 construct: Dundee University (panel)
Protocol: as §1, §2

CHK1 = target: T12, CHK1 (Homo sapiens, UniProt O14757); experiment: Protein kinase panel selectivity screen, CHK1; assay type: biochemical; conditions: 1 μM compound; [ATP] 20 μM
T12 construct: Dundee University (screening panel)
Protocol: as §1, §2

CK2 = experiment: Protein kinase panel selectivity screen, CK2; assay type: biochemical; conditions: 1 μM compound; [ATP] 5 μM
Protocol: as §1, §2

CSK = target: T13, CSK (Homo sapiens, UniProt P41240); experiment: Protein kinase panel selectivity screen, CSK; assay type: biochemical; conditions: 1 μM compound; [ATP] 20 μM
T13 construct: Dundee University (screening panel)
Protocol: as §1, §2

CK1 = experiment: Protein kinase panel selectivity screen, CK1; assay type: biochemical; conditions: 1 μM compound; [ATP] 20 μM
Protocol: as §1, §2

T4 sequence (O15264 whole entry): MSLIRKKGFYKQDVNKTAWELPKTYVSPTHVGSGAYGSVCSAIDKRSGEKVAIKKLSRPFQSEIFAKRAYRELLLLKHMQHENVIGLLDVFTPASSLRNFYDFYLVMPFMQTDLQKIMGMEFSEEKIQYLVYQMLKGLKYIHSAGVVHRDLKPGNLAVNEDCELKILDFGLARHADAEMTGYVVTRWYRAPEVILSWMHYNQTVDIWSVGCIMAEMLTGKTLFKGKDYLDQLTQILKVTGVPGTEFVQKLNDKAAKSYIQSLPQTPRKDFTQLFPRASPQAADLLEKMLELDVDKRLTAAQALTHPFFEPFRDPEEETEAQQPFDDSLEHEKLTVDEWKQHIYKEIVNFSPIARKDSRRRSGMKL
T1 sequence (G1T8E2 1-432): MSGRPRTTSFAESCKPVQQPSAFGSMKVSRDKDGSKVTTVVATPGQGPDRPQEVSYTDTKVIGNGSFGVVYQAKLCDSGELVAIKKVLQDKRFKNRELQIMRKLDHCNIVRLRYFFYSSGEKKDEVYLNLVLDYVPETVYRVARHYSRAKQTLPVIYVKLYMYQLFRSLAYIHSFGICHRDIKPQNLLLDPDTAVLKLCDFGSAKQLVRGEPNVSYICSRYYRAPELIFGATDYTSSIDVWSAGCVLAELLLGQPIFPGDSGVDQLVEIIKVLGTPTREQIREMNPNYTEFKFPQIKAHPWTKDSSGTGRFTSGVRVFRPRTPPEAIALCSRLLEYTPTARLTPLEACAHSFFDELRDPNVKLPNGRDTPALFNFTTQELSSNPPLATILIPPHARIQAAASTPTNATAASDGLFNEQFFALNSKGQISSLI
T2 sequence (P50750 whole entry, species assumed): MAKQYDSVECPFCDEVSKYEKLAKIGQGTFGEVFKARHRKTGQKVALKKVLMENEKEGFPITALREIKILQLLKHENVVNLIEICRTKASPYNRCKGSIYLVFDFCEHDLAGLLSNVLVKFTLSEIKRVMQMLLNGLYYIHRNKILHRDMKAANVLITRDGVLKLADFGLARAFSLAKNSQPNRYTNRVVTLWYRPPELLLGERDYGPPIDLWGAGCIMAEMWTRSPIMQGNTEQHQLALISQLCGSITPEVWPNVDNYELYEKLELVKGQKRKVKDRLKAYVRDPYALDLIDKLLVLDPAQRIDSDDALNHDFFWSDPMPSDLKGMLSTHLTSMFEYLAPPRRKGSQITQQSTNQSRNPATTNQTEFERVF
T2 sequence (O60563 whole entry partner, species assumed): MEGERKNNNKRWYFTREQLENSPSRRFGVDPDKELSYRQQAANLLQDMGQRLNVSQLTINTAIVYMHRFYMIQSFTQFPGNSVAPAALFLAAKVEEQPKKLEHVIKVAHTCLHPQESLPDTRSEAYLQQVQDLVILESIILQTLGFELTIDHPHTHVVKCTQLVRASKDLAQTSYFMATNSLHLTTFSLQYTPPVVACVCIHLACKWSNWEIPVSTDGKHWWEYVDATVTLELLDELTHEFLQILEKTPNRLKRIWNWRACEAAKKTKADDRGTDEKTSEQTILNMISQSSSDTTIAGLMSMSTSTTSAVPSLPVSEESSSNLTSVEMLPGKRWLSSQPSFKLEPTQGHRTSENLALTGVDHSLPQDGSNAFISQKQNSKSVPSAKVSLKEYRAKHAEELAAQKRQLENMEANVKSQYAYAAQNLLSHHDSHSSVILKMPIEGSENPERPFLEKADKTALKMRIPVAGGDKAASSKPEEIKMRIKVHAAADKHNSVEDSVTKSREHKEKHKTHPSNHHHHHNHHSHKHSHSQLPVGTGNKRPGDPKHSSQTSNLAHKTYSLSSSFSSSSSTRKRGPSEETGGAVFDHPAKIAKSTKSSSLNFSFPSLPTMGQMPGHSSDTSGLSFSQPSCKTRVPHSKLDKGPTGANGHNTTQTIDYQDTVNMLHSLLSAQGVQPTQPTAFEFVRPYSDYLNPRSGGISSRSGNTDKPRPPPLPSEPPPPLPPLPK
T11 sequence (P49841 whole entry, species assumed): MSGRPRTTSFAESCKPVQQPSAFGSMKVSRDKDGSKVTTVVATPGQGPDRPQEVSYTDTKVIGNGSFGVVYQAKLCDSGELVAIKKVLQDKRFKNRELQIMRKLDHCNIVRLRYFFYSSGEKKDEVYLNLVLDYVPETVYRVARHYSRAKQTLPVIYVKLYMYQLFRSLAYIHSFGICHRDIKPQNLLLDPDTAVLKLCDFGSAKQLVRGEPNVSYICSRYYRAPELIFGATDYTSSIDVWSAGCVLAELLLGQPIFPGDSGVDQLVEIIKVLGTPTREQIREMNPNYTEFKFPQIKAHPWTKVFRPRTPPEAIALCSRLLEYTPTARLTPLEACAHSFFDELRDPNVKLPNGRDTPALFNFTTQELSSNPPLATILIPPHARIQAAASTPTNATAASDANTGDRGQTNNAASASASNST
T7 sequence (O75582 whole entry, species assumed): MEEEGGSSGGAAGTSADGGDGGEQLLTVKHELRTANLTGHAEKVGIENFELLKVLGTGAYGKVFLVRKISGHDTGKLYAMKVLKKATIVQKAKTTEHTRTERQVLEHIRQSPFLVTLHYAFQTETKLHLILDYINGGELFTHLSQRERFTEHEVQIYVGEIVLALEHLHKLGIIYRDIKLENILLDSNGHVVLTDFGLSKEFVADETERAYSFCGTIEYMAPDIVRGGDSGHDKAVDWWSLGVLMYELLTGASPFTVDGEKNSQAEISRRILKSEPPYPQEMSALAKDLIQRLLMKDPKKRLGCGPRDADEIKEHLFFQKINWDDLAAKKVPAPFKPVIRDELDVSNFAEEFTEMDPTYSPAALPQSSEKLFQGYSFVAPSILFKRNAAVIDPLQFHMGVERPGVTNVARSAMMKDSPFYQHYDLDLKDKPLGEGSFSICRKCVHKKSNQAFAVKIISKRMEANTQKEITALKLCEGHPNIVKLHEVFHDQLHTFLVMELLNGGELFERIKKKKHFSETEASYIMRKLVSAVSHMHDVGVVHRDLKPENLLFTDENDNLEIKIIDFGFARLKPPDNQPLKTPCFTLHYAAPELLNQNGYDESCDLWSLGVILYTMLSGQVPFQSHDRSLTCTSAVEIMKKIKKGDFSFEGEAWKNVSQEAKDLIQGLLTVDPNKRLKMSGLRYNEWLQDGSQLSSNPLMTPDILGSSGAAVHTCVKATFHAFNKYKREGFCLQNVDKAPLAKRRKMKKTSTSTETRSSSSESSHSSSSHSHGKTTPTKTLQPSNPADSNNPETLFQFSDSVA
T8 sequence (Q8IW41 whole entry, species assumed): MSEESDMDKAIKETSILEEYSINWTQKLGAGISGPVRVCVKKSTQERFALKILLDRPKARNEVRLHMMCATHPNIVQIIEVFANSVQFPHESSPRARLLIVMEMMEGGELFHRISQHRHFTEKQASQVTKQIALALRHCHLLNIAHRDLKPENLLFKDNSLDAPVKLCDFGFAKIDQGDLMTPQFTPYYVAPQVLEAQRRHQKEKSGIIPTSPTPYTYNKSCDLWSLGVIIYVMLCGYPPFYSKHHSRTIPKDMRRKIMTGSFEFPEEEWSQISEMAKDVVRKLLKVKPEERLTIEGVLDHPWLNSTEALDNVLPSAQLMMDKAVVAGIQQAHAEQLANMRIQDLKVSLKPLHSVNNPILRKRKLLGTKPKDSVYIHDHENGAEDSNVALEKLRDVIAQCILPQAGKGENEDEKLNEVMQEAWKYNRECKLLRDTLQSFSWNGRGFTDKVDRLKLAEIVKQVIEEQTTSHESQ
T10 sequence (P31749 118-480 S473D limits assumed): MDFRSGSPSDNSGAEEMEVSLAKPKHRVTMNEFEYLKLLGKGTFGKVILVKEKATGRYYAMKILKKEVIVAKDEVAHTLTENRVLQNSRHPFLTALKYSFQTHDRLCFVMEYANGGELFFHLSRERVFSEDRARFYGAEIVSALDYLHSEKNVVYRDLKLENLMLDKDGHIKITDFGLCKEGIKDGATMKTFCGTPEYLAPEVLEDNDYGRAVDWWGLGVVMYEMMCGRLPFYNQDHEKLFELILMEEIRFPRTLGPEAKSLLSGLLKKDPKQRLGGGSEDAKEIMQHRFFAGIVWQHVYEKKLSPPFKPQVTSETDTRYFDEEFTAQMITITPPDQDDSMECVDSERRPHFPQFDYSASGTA
T6 sequence (P49137 whole entry, species assumed): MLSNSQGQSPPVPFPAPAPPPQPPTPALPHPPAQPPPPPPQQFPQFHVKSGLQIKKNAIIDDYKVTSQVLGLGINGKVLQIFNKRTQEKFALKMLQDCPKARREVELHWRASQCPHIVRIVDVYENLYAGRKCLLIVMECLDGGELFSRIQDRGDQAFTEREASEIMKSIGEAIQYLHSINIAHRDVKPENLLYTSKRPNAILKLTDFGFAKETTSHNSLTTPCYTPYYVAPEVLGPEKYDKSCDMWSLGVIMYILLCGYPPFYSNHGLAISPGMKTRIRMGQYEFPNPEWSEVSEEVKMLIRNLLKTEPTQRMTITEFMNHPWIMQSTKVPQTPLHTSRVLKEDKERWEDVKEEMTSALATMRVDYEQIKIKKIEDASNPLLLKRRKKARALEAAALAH
T13 sequence (P41240 whole entry, species assumed): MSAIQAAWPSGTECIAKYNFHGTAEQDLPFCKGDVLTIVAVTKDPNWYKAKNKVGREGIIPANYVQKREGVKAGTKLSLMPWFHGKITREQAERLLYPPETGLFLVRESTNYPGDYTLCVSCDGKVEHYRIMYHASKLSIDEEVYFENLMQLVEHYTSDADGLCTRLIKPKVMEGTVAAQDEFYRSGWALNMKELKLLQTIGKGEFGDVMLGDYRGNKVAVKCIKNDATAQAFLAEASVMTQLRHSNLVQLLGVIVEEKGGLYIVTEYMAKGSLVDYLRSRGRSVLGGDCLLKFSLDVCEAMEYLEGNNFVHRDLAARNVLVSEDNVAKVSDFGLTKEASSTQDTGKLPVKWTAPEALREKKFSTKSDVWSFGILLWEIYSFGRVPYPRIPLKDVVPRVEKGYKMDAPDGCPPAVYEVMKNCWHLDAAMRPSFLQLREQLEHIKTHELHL

## Clc1ccc(Nc2nccc(-c3nccs3)n2)cn1 [Compound XIV, (6-Chloro-pyridin-3-yl)-(4-thiazol-2-yl-pyrimidin-2-yl)-amine]
GSK-3β; read-out: Ki GSK3
  Ki: 16 nM
GSK-3β; read-out: Kinase inhibition IC50 GSK3β
  IC50: 176 nM
CDK9/cyclin T1
  Ki: 500 nM
CDK9/cyclin T1; from Ki
  Fold selectivity for GSK3 over CDK9/cyclin T1: 31 fold
[1]
  β-catenin transcriptional activity (luciferase reporter): No induction
SAPK2a/p38
  activity at 1 µM: 84 ± 7%
SAPK4/p38d
  inhibition at 1 µM: ~40%
SAPK4/p38d; [ATP] 5 μM
  activity at 1 µM: 91 ± 9%
MAPKAP-K1a
  activity at 1 µM: 60 ± 1%
MAPKAP-K2
  activity at 1 µM: 86 ± 7%
MSK1
  activity at 1 µM: 90 ± 6%
PRAK
  activity at 1 µM: 83 ± 3%
PKCa
  activity at 1 µM: 76%
PKBdelta PH
  activity at 1 µM: 98 ± 1%
GSK3b
  Selectivity in the 29-kinase panel: highly selective for GSK3
GSK3b; [ATP] 5 μM
  activity at 1 µM: 13 ± 5%
CHK1
  activity at 1 µM: 78 ± 4%
CK2
  % Activity CK2: 84 ± 1%
CSK
  activity at 1 µM: 93 ± 8%
CK1
  % Activity CK1: 69 ± 1%
